In publication PMC10747733, “N-Substituted 2-(Benzenosulfonyl)-1-Carbotioamide Derivatives Exert Antimicrobial and Cytotoxic Effects via Aldehyde Dehydrogenase Pathway: Synthesis, In Silico and In Vitro Studies” (Pharmaceuticals, 2023):
Converted amounts (≈) assume the structure as drawn.

Key:
[1] = system: ALDH1A1; experiment: ALDH1A1 concentration by ELISA in 769-P cells; assay type: cell-based, human
Description: The effect of compounds WZ1–WZ4 on ALDHA1 levels was investigated (Figure 10). The Du145, HepG2 and 769-P cell lines were treated with the calculated IC25 values for each compound.
Selected cell lines, viz HepG2, Du145 and 769-P, were seeded into 6-well plates and incubated for 24 h after seeding with compounds at a concentration equal to IC25. After a further 24 h or 48 h, cells were detached with trypsin and centrifuged. The resulting cell pellet was resuspended in 0.5 mL PBS. The samples were then sonicated, and protein was determined using the Bradford method (Bio-rad; Hercules, CA, USA). Samples were equilibrated to 10 mg/mL of protein, and ALDH1A1 was determined in the samples prepared in this way. ALDH1A1 determination was performed using an ELISA (SEE824Hu; Cloud Clone Corp., Katy, TX, USA), according to the manufacturer’s protocol.

[2] = system: Bacillus cereus ATCC 10876; experiment: Broth microdilution antimicrobial activity; assay type: cell-based; conditions: for MBC / MIC: ATCC10876
Description: (§1) Reference strains of microorganisms that came from American Type Culture Collection (ATCC) (Manassas, VA, USA) were used for this study. The representative Gram-positive bacteria were as follows: Staphylococcus aureus ATCC 25923, Staphylococcus aureus ATCC 29213, Staphylococcus aureus ATCC 43300, Staphylococcus epidermidis ATCC 12228, Enterococcus faecalis ATCC 29212, Micrococcus luteus ATCC 10240, Bacillus subtilis ATCC 6633 and Bacillus cereus ATCC 10876. While, those of Gram-negative bacteria were as follows: Bordetella bronchiseptica ATCC 4617, Escherichia coli ATCC 25922, Klebsiella pneumoniae ATCC 13883, Proteus mirabilis ATCC 12453, Salmonella Typhimurium ATCC 14028 and Pseudomonas aeruginosa ATCC 9027. Moreover, the following fungi belonging to yeasts were used: Candida albicans ATCC 10231, Candida albicans ATCC 2091, Candida parapsilosis ATCC 22019, Candida glabrata ATCC 90030 and Candida krusei ATCC 14243.
(§2) The new compounds WZ1–WZ4 were assayed for both antibacterial and antifungal activity using the broth microdilution method in accordance with the European Committee on Antimicrobial Susceptibility Testing (EUCAST) and Clinical and Laboratory Standards Institute (CLSI) guidelines. The microorganisms were grown at 35 °C for 18–24 h on appropriate media (nutrient agar and Sabouraud for bacteria and fungi, respectively) (BioMaxima S.A., Lublin, Poland). Next, microbial suspensions with an optical density of 0.5 McFarland standard scale (in sterile 0.85% NaCl) were prepared. In turn, the tested compounds were initially diluted at 50 mg/mL in dimethyl sulfoxide (DMSO) and the broth microdilution method was used to assess their minimum inhibitory concentrations (MICs). For these studies, selective broth Mueller-Hinton (MH) (BioMaxima S.A., Lublin, Poland) and RPMI (Roswell Park Memorial Institute) 1640 with MOPS (3-(N-Morpholino)propanesulfonic acid) (Sigma-Aldrich Chemicals, St. Louis, MO, USA) were used for bacteria and fungi, respectively. The antimicrobial effect of compounds WZ1–WZ4 was determined in the concentration range from 2000 to 0.98 µg/mL.
(§3) Then, the microbial suspensions were introduced into each well of the microplate and incubated for 18–24 h at 35 °C. […] The reference drugs ciprofloxacin or vancomycin (against bacteria) and nystatin (against fungi) (Sigma-Aldrich Chemicals, St. Louis, MO, USA) were also used. Next, the values of the minimum bactericidal concentration (MBC) and minimum fungicidal concentration (MFC) of WZ1–WZ4 were assessed. For this purpose, the cultures from each MIC determination well were transferred to a suitable solid medium and incubated under appropriate conditions. The lowest concentrations of compounds without microbial growth were read as MBC or MFC. The studies were performed in triplicate and representative data were gathered.
(§4) In turn, the MBC/MIC or MFC/MIC ratios were used to assess bactericidal/fungicidal (MBC/MIC or MFC/MIC ≤ 4) and bacteriostatic/fungistatic (MBC/MIC or MFC/MIC > 4) effect of these compounds [93].

[3] = system: Staphylococcus aureus ATCC 29213; experiment: Broth microdilution antimicrobial activity; assay type: cell-based; conditions: for MBC / MIC: ATCC29213; for MBC / MIC / MBC/MIC: Staphylococcus aureus ATCC 29213
Description: as §1, §2, §3, §4

[4] = system: Proteus mirabilis ATCC 12453; experiment: Broth microdilution antimicrobial activity; assay type: cell-based; conditions: for MBC / MIC: ATCC12453
Description: as §1, §2, §3, §4

[5] = system: Candida glabrata ATCC 90030; experiment: Broth microdilution antimicrobial activity; assay type: cell-based; conditions: for MFC / MIC: Nakaseomyces glabratus; for MFC: ATCC90030, read-out: MFC; for MIC: ATCC90030, read-out: MIC
Description: as §1, §2, §3, §4

[6] = system: Candida krusei ATCC 14243; experiment: Broth microdilution antimicrobial activity; assay type: cell-based; conditions: for MFC / MIC: Pichia kudriavzevii; for MFC: ATCC14243, read-out: MFC; for MIC: ATCC14243, read-out: MIC
Description: as §1, §2, §3, §4

[7] = system: Candida albicans ATCC 2091; experiment: Broth microdilution antimicrobial activity; assay type: cell-based; conditions: for MFC: ATCC2091, read-out: MFC; for MIC: ATCC2091, read-out: MIC
Description: as §1, §2, §3, §4

[8] = system: Bordetella bronchiseptica ATCC 4617; experiment: Broth microdilution antimicrobial activity; assay type: cell-based; conditions: for MBC / MIC: ATCC4617
Description: as §1, §2, §3, §4

[9] = system: Enterococcus faecalis ATCC 29212; experiment: Broth microdilution antimicrobial activity; assay type: cell-based; conditions: for MBC / MIC: ATCC29212; for MBC / MIC / MBC/MIC: Enterococcus faecalis ATCC 29212; for MBC: read-out: MBC; for MIC: read-out: MIC
Description: as §1, §2, §3, §4

[10] = system: Escherichia coli ATCC 25922; experiment: Broth microdilution antimicrobial activity; assay type: cell-based; conditions: for MBC / MIC: ATCC25922
Description: as §1, §2, §3, §4

[11] = system: Klebsiella pneumoniae ATCC 13883; experiment: Broth microdilution antimicrobial activity; assay type: cell-based; conditions: for MBC / MIC: ATCC13883
Description: as §1, §2, §3, §4

[12] = system: Candida albicans ATCC 10231; experiment: Broth microdilution antimicrobial activity; assay type: cell-based; conditions: for MFC: ATCC10231, read-out: MFC; for MIC: ATCC10231, read-out: MIC
Description: as §1, §2, §3, §4

[13] = system: Staphylococcus epidermidis ATCC 12228; experiment: Broth microdilution antimicrobial activity; assay type: cell-based; conditions: for MBC / MIC: ATCC12228
Description: as §1, §2, §3, §4

[14] = system: Staphylococcus aureus ATCC 25923; experiment: Broth microdilution antimicrobial activity; assay type: cell-based; conditions: for MBC / MIC: ATCC25923
Description: as §1, §2, §3, §4

[15] = system: Candida parapsilosis ATCC 22019; experiment: Broth microdilution antimicrobial activity; assay type: cell-based; conditions: for MFC / MIC: Lodderomyces parapsilosis; for MFC: ATCC22019, read-out: MFC; for MIC: ATCC22019, read-out: MIC
Description: as §1, §2, §3, §4

For O=S(=O)(NNC(=S)NC1CCCCC1)c1ccccc1 [WZ1, 2-(Benzenesulfonyl)-N-Cyclohexylhydrazine-1-Carbothioamide], the “ALDH1A1 concentration compared to control” value ([1]; compound at IC25, 24 h) was “decrease”, the MBC/MIC [2] was greater than 4 and the MBC [2] was greater than 2000 µg/mL. For the same molecule, the MIC [2] was 500 µg/mL (≈ 1.6 mM), the MBC [3] was greater than 2000 µg/mL and the MIC [3] was 500 µg/mL (≈ 1.6 mM). The MBC/MIC [3] was greater than 4, the MBC/MIC [4] was greater than 1 and the MBC [4] was greater than 2000 µg/mL. For the same molecule, the MIC [4] was greater than 2000 µg/mL, the MFC/MIC [5] was greater than 1 and the MFC [5] was greater than 2000 µg/mL. The MIC [5] was greater than 2000 µg/mL, the MFC/MIC [6] was greater than 1 and the MFC [6] was greater than 2000 µg/mL. It also gave an MIC [6] greater than 2000 µg/mL, an MFC/MIC [7] greater than 1 and an MFC [7] greater than 2000 µg/mL. It also gave an MIC [7] greater than 2000 µg/mL, an MBC/MIC [8] greater than 1 and an MBC [8] greater than 2000 µg/mL. For the same molecule, the MIC [8] was greater than 2000 µg/mL, the MBC [9] was greater than 2000 µg/mL and the MIC [9] was 2000 µg/mL (≈ 6.38 mM). For the same molecule, the MBC/MIC [9] was greater than 1, the MBC/MIC [10] was greater than 1 and the MBC [10] was greater than 2000 µg/mL. It also gave an MIC [10] greater than 2000 µg/mL, an MBC/MIC [11] greater than 1 and an MBC [11] greater than 2000 µg/mL. The MIC [11] was greater than 2000 µg/mL, the MFC/MIC [12] was greater than 1 and the MFC [12] was greater than 2000 µg/mL. It also gave an MIC [12] greater than 2000 µg/mL, an MBC/MIC [13] greater than 8 and an MBC [13] greater than 2000 µg/mL. The MIC [13] was 250 µg/mL (≈ 0.798 mM), the MBC/MIC [14] was greater than 4 and the MBC [14] was greater than 2000 µg/mL. For the same molecule, the MIC [14] was 500 µg/mL (≈ 1.6 mM), the MFC/MIC [15] was greater than 1 and the MFC [15] was greater than 2000 µg/mL. It also gave an MIC [15] greater than 2000 µg/mL.

For CCCCNC(=S)NNS(=O)(=O)c1ccccc1 [WZ2, 2-(Benzenesulfonyl)-N-Butylhydrazine-1-Carbothioamide], the “ALDH1A1 concentration compared to control” value ([1]; compound at IC25, 24 h) was “no significant changes”, the “ALDH1A1 concentration compared to control” value ([1]; compound at IC25, 48 h) was “significant decrease” and the MBC/MIC [2] was 2. The MBC [2] was 2000 µg/mL (≈ 6.96 mM), the MIC [2] was 1000 µg/mL (≈ 3.48 mM) and the MBC [3] was greater than 2000 µg/mL. The MIC [3] was 2000 µg/mL (≈ 6.96 mM), the bioactivity class ([3]; S. aureus ATCC 29213) was “no bioactivity (no bioactivity (MIC > 1000 µg/mL))” and the MBC/MIC [3] was greater than 1. The MBC/MIC [4] was greater than 1, the MBC [4] was greater than 2000 µg/mL and the MIC [4] was greater than 2000 µg/mL. It also gave an MFC/MIC [5] greater than 1, an MFC [5] greater than 2000 µg/mL and an MIC [5] greater than 2000 µg/mL. For the same molecule, the MFC/MIC [6] was greater than 1, the MFC [6] was greater than 2000 µg/mL and the MIC [6] was 2000 µg/mL (≈ 6.96 mM). It also gave an MFC/MIC [7] greater than 1, an MFC [7] greater than 2000 µg/mL and an MIC [7] of 2000 µg/mL (≈ 6.96 mM). The MBC/MIC [8] was greater than 1, the MBC [8] was greater than 2000 µg/mL and the MIC [8] was greater than 2000 µg/mL. The MBC [9] was greater than 2000 µg/mL, the MIC [9] was greater than 2000 µg/mL and the bioactivity class ([9]; E. faecalis) was “no bioactivity (no bioactivity (MIC > 1000 µg/mL))”. The MBC/MIC [9] was greater than 1, the MBC/MIC [10] was greater than 1 and the MBC [10] was greater than 2000 µg/mL. For the same molecule, the MIC [10] was greater than 2000 µg/mL, the MBC/MIC [11] was greater than 1 and the MBC [11] was greater than 2000 µg/mL. For the same molecule, the MIC [11] was greater than 2000 µg/mL, the MFC/MIC [12] was greater than 1 and the MFC [12] was greater than 2000 µg/mL. For the same molecule, the MIC [12] was 2000 µg/mL (≈ 6.96 mM), the MBC/MIC [13] was greater than 2 and the MBC [13] was greater than 2000 µg/mL. For the same molecule, the MIC [13] was 1000 µg/mL (≈ 3.48 mM), the MBC/MIC [14] was greater than 2 and the MBC [14] was greater than 2000 µg/mL. The MIC [14] was 1000 µg/mL (≈ 3.48 mM), the MFC/MIC [15] was greater than 1 and the MFC [15] was greater than 2000 µg/mL. The MIC [15] was 2000 µg/mL (≈ 6.96 mM).
